# How the values were obtained:
# Assay in all cases: split-luciferase competition binding
# AKT1 (human) = AKT1 (human) (UniProt P31749); details: compound 10.0 µM
# AKT2 (human) = AKT2 (human) (UniProt P31751); details: compound 10.0 µM
# AKT3 (human) = AKT3 (human) (UniProt Q9Y243); details: compound 10.0 µM
# AURKA (human) = AURKA (human) (UniProt O14965); details: compound 10.0 µM
# AURKB (human) = AURKB (human) (UniProt Q96GD4); details: compound 10.0 µM
# AURKC (human) = AURKC (human) (UniProt Q9UQB9); details: compound 10.0 µM
# DMPK (human) = DMPK (human) (UniProt Q09013); details: compound 10.0 µM
# PDPK1 (human) = PDPK1 (human) (UniProt O15530); details: compound 10.0 µM
# PKN1 (human) = PKN1 (human) (UniProt Q16512); details: compound 10.0 µM
# PRKACA (mouse) = details: compound 10.0 µM; accession and sequence are those of the human protein
# PRKACB (human) = PRKACB (human) (UniProt P22694); details: compound 10.0 µM
# PRKCD (human) = PRKCD (human) (UniProt Q05655); details: compound 10.0 µM
# PRKCE (human) = PRKCE (human) (UniProt Q02156); details: compound 10.0 µM
# PRKCG (human) = PRKCG (human) (UniProt P05129); details: compound 10.0 µM
# PRKCH (human) = PRKCH (human) (UniProt P24723); details: compound 10.0 µM
# PRKCI (human) = PRKCI (human) (UniProt P41743); details: compound 10.0 µM
# PRKCQ (human) = PRKCQ (human) (UniProt Q04759); details: compound 10.0 µM
# PRKX (human) = PRKX (human) (UniProt P51817); details: compound 10.0 µM
# RPS6KA1 KD1 (human) = RPS6KA1 KD1 (human) (UniProt Q15418); details: compound 10.0 µM
# RPS6KA2 KD1 (human) = RPS6KA2 KD1 (human) (UniProt Q15349); details: compound 10.0 µM
# RPS6KA3 KD1 (human) = RPS6KA3 KD1 (human) (UniProt P51812); details: compound 10.0 µM
# RPS6KA4 KD1 (human) = RPS6KA4 KD1 (human) (UniProt O75676); details: compound 10.0 µM
# RPS6KA5 KD1 (human) = RPS6KA5 KD1 (human) (UniProt O75582); details: compound 10.0 µM
# RPS6KA6 KD1 (human) = RPS6KA6 KD1 (human) (UniProt Q9UK32); details: compound 10.0 µM
# SGK2 (human) = SGK2 (human) (UniProt Q9HBY8); details: compound 10.0 µM
# SGK3 (human) = SGK3 (human) (UniProt Q96BR1); details: compound 10.0 µM
# STK32B (human) = STK32B (human) (UniProt Q9NY57); details: compound 10.0 µM
# PRKCH (human), sequence (P24723 whole entry, looked up): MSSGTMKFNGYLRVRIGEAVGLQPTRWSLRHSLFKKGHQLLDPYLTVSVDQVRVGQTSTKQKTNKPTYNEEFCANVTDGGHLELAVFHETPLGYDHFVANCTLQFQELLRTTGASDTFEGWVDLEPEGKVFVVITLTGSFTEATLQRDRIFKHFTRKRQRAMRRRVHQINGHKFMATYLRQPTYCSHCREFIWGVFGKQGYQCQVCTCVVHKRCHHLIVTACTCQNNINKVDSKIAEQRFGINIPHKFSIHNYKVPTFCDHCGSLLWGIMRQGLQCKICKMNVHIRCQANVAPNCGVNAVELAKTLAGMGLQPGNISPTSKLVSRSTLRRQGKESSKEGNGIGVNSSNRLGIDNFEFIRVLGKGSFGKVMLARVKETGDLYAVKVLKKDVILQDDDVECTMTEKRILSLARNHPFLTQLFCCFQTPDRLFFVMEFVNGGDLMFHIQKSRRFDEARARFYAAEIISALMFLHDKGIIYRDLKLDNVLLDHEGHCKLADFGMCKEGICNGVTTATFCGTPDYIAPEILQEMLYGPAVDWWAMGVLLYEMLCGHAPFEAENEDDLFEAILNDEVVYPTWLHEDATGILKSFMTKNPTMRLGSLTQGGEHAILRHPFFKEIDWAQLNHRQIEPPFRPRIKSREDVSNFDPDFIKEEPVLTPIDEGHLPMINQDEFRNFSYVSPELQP
# RPS6KA5 KD1 (human), sequence (O75582 whole entry, looked up): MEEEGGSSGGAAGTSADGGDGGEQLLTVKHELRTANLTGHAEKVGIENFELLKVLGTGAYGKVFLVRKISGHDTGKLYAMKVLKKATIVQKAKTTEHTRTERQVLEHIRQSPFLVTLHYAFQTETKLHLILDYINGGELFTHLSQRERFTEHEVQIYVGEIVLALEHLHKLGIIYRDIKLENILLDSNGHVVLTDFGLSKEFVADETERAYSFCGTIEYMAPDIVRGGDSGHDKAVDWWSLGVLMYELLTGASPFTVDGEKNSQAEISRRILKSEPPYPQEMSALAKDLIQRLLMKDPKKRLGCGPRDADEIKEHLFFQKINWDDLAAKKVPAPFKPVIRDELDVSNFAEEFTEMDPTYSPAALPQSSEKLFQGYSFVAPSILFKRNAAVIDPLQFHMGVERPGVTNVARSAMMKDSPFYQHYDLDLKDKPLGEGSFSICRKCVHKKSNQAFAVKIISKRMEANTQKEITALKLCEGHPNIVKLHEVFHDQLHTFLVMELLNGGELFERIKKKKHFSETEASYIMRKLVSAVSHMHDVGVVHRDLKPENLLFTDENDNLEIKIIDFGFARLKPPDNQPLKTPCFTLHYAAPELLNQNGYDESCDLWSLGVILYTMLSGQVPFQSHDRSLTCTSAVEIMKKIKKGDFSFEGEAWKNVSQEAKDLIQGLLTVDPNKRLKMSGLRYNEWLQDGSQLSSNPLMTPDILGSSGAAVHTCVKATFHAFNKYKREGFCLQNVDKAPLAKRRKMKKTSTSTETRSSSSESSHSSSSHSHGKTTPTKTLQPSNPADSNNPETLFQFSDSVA
# AURKC (human), sequence (Q9UQB9 whole entry, looked up): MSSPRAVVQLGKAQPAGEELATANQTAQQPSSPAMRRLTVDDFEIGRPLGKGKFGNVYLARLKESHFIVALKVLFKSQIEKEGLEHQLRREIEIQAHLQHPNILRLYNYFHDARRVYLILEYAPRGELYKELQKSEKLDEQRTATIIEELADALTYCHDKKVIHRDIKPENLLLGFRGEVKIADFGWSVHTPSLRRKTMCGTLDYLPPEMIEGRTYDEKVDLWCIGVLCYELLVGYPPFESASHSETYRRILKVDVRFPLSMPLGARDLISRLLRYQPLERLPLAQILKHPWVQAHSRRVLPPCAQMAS
# PRKCI (human), sequence (P41743 whole entry, looked up): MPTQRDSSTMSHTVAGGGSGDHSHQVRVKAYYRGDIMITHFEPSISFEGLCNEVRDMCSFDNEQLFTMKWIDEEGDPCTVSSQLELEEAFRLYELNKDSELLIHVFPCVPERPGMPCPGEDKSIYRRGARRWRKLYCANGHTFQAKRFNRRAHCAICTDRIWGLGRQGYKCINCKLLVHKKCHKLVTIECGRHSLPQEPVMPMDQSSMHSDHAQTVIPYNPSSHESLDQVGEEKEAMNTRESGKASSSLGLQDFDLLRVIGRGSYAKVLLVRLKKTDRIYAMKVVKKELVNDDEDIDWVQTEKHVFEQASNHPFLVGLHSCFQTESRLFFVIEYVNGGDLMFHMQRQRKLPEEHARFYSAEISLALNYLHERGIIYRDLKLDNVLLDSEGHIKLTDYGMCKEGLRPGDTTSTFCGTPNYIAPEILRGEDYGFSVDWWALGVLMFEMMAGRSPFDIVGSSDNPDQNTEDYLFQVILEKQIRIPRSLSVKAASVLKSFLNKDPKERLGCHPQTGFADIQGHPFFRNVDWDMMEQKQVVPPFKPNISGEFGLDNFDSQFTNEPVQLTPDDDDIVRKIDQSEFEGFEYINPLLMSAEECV
# AKT1 (human), sequence (P31749 whole entry, looked up): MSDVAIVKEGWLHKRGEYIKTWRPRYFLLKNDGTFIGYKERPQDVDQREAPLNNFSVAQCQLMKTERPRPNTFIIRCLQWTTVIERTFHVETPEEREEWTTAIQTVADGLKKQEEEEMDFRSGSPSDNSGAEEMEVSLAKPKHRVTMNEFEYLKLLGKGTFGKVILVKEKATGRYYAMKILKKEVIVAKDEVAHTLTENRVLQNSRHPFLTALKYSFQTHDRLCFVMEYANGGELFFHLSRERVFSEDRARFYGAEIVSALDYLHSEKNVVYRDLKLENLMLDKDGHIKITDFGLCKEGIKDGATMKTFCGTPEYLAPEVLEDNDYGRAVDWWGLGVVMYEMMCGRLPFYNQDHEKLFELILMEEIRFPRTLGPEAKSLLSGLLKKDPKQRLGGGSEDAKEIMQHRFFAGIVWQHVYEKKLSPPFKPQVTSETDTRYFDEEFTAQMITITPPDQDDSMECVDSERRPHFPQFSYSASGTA
# AURKB (human), sequence (Q96GD4 whole entry, looked up): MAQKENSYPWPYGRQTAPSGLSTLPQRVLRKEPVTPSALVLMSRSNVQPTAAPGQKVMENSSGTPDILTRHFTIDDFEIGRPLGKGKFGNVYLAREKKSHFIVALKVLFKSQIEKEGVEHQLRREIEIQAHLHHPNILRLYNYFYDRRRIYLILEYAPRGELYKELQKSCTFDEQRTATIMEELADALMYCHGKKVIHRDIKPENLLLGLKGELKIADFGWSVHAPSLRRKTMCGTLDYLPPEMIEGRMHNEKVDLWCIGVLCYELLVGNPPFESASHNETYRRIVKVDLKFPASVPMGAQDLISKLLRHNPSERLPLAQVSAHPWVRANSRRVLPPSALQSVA
# PRKCQ (human), sequence (Q04759 whole entry, looked up): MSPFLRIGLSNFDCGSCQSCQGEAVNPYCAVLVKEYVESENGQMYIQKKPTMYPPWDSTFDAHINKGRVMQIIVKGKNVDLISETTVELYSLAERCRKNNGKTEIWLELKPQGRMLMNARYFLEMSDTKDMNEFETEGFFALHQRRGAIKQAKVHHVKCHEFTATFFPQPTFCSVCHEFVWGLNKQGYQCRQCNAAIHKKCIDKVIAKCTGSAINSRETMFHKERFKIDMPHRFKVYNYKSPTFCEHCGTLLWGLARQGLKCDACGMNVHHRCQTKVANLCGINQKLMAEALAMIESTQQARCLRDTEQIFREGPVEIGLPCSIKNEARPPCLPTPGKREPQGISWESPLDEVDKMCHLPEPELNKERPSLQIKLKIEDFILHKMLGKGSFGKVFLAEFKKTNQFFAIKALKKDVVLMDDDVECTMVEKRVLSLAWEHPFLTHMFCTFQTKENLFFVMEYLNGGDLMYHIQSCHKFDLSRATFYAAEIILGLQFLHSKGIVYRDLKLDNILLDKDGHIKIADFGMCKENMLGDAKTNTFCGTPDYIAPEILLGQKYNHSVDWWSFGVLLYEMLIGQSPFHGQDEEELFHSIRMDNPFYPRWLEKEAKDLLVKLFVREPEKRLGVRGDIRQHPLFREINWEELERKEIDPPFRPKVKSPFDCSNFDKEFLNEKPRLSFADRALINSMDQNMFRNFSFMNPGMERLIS
# PRKCD (human), sequence (Q05655 whole entry, looked up): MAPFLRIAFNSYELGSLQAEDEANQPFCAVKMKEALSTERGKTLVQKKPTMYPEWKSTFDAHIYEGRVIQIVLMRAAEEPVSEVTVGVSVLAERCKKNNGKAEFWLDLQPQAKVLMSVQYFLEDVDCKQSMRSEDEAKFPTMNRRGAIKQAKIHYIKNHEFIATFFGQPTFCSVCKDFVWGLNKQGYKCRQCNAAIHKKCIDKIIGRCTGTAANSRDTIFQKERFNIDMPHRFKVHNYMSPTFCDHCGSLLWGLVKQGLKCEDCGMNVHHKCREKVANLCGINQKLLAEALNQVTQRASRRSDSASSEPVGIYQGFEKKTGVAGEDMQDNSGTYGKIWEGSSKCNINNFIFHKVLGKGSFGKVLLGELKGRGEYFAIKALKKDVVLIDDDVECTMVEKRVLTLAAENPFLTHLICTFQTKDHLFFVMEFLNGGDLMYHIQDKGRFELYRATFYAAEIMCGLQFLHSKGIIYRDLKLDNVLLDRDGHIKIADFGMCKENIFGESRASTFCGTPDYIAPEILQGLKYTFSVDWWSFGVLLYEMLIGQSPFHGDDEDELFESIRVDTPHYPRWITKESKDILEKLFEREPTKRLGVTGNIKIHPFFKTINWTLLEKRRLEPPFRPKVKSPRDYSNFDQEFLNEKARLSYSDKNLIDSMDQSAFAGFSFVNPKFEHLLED
# PRKX (human), sequence (P51817 whole entry, looked up): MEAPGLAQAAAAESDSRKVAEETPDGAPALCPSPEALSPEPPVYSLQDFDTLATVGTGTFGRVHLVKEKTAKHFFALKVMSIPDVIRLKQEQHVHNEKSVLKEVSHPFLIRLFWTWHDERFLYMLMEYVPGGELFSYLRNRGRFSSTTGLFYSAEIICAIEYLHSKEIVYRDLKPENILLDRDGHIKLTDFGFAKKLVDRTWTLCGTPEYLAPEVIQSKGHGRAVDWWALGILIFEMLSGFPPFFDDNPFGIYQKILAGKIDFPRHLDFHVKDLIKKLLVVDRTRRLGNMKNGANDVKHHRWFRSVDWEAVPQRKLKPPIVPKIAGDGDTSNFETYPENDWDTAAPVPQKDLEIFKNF
SMILES,inhibition (AKT1 (human)) [%],inhibition (AKT2 (human)) [%],inhibition (AKT3 (human)) [%],inhibition (AURKA (human)) [%],inhibition (AURKB (human)) [%],inhibition (AURKC (human)) [%],inhibition (DMPK (human)) [%],inhibition (PDPK1 (human)) [%],inhibition (PKN1 (human)) [%],inhibition (PRKACA (mouse)) [%],inhibition (PRKACB (human)) [%],inhibition (PRKCD (human)) [%],inhibition (PRKCE (human)) [%],inhibition (PRKCG (human)) [%],inhibition (PRKCH (human)) [%],inhibition (PRKCI (human)) [%],inhibition (PRKCQ (human)) [%],inhibition (PRKX (human)) [%],inhibition (RPS6KA1 KD1 (human)) [%],inhibition (RPS6KA2 KD1 (human)) [%],other results
Oc1ccc(-c2nc(-c3ccc(F)cc3)c(-c3ccncc3)[nH]2)cc1,5,0,0,0,0,21,0,0,0,11,0,7,0,0,0,0,0,13,0,0,inhibition (RPS6KA3 KD1 (human)): 0%; inhibition (RPS6KA4 KD1 (human)): 0%; inhibition (RPS6KA5 KD1 (human)): 0%; inhibition (RPS6KA6 KD1 (human)): 0%; inhibition (SGK2 (human)): 0%; inhibition (SGK3 (human)): 0%; inhibition (STK32B (human)): 11%
Cn1cc(C2=C(c3ccc(Cl)cc3Cl)C(=O)NC2=O)c2ccccc21,3,0,0,3,0,0,8,0,0,5,8,5,3,2,0,11,3,1,21,1,inhibition (RPS6KA3 KD1 (human)): 0%; inhibition (RPS6KA4 KD1 (human)): 0%; inhibition (RPS6KA5 KD1 (human)): 0%; inhibition (RPS6KA6 KD1 (human)): 0%; inhibition (SGK2 (human)): 0%; inhibition (SGK3 (human)): 0%; inhibition (STK32B (human)): 0%
c1ccc(-c2n[nH]cc2-c2ccnc3ccccc23)nc1,0,0,0,0,25,6,3,0,7,1,0,0,5,4,0,0,1,5,0,0,inhibition (RPS6KA3 KD1 (human)): 0%; inhibition (RPS6KA4 KD1 (human)): 0%; inhibition (RPS6KA5 KD1 (human)): 0%; inhibition (RPS6KA6 KD1 (human)): 0%; inhibition (SGK2 (human)): 0%; inhibition (SGK3 (human)): 0%; inhibition (STK32B (human)): 8%

# Source: the kinase profiling compilation of Christmann-Franck et al. (2016)
